Experimental data as given in patent US20140288052A1, “SUBSTITUTED BICYCLIC AZA-HETEROCYCLES AND ANALOGUES AS SIRTUIN MODULATORS” (GlaxoSmithKline, LLC, priority 2011, published 2014).

What was measured:
SIRT1 [1] = biological target: T1, SIRT1 (Homo sapiens, UniProt Q96EB6); experiment: Trp mass spectrometry assay of SIRT1 deacetylase activation; format: biochemical; details: Trp peptide substrate; for TRP EC1.5 (μM): concentration that results in 150% activation of SIRT1; for TRP % Fold Act: percent maximum fold activation relative to control (100%)
T1 sequence (Q96EB6 1-747): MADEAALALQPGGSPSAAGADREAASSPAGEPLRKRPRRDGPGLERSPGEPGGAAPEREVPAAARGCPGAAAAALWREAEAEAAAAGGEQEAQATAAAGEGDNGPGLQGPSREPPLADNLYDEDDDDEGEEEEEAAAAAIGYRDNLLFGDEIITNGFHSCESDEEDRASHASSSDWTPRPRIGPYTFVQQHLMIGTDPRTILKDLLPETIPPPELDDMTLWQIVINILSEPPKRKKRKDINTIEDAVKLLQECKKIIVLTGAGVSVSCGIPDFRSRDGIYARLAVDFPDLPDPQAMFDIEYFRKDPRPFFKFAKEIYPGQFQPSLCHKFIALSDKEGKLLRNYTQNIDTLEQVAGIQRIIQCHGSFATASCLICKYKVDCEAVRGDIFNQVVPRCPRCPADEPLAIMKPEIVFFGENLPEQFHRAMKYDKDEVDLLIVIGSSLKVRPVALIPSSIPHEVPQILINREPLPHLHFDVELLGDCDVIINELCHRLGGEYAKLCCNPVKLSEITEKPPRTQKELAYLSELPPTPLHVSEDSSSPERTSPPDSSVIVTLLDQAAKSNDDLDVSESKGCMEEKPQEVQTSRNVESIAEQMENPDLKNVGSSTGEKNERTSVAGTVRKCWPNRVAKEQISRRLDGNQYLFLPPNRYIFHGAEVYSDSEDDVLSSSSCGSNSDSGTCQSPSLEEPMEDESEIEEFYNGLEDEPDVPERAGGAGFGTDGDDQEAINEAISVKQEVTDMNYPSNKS
Description: (§1) Mass spectrometry based assays were used to identify modulators of SIRT1 activity. The TAMRA based assay utilized a peptide having 20 amino acid residues as follows: Ac-EE-K(biotin)-GQSTSSHSK(Ac)NleSTEG-K(5TMR)-EE-NH2 (SEQ ID NO: 1), wherein K(Ac) is an acetylated lysine residue and Nle is a norleucine. The peptide was labeled with the fluorophore 5TMR (excitation 540 nm/emission 580 nm) at the C-terminus. The sequence of the peptide substrate was based on p53 with several modifications. In addition, the methionine residue naturally present in the sequence was replaced with the norleucine because the methionine may be susceptible to oxidation during synthesis and purification. The Trp based assay utilized a peptide having an amino acid residues as follows: Ac-R-H-K-K(Ac)-W-NH2 (SEQ ID NO: 2).
The Trp mass spectrometry assay was conducted as follows. 0.5 μM peptide substrate and 120 μM βNAD^+ were incubated with 10 nM SIRT1 for 25 minutes at 25° C. in a reaction buffer (50 mM HEPES pH 7.5, […], 1 mM DTT, 0.05% BSA). The SIRT1 protein was obtained by cloning the SirT1 gene into a T7-promoter containing vector, which was then expressed in BL21(DE3) bacterial cells and purified as described in further detail below. Test compound was added at varying concentrations to this reaction mixture and the resulting reactions were monitored. After the 25 minute incubation with SIRT1, 10 μL of 10% formic acid was added to stop the reaction. The resulting reactions were sealed and frozen for later mass spec analysis. The relative SIRT1 activity was then determined by measuring the amount of O-acetyl-ADP-ribose (OAADPR) formed (or, alternatively, the amount of deacetylated Trp peptide generated) by the NAD-dependent sirtuin deacetylation reaction in the presence of varying concentrations of the test compound versus control reactions lacking the test compound. The degree to which the test agent activated deacetylation by SIRT1 was expressed as EC1.5 (i.e., the concentration of compound required to increase SIRT1 activity by 50% over the control lacking test compound), and Percent Maximum Activation (i.e., the maximum activity relative to control (100%) obtained for the test compound).
(§2) A control for inhibition of sirtuin activity was conducted by adding 1 μL of 500 mM nicotinamide as a negative control at the start of the reaction (e.g., permits determination of maximum sirtuin inhibition). A control for activation of sirtuin activity was conducted using 10 nM of sirtuin protein, with 1 μL of DMSO in place of compound, to determine the amount of deacetylation of the substrate at a given time point within the linear range of the assay. This time point was the same as that used for test compounds and, within the linear range, the endpoint represents a change in velocity. For the above assay, SIRT1 protein was expressed and purified as follows. The SirT1 gene was cloned into a T7-promoter containing vector and transformed into BL21(DE3). The protein was expressed by induction with 1 mM IPTG as an N-terminal His-tag fusion protein at 18° C. overnight and harvested at 30,000×g. Cells were lysed with lysozyme in lysis buffer (50 mM Tris-HCl, 2 mM Tris[2-carboxyethyl] phosphine (TCEP), 10 μM ZnCl2, 200 mM NaCl) and further treated with sonication for 10 min for complete lysis. The protein was purified over a Ni-NTA column (Amersham) and fractions containing pure protein were pooled, concentrated and run over a sizing column (Sephadex S200 26/60 global). The peak containing soluble protein was collected and run on an Ion-exchange column (MonoQ). Gradient elution (200 mM-500 mM NaCl) yielded pure protein. This protein was concentrated and dialyzed against dialysis buffer (20 mM Tris-HCl, 2 mM TCEP) overnight. The protein was aliquoted and frozen at −80° C. until further use.
Sirtuin-modulating compounds of Formula (I) that activated SIRT1 were identified using the assay described above and are shown below in Table 1. […]

SIRT1 [2] = biological target: T1, SIRT1; experiment: TAMRA based mass spectrometry assay of SIRT1 deacetylase activation; format: biochemical; details: TAMRA peptide substrate; for TAMRA EC1.5 (μM): concentration that results in 150% activation of SIRT1; for TAMRA % Fold Act: percent maximum fold activation relative to control (100%)
Description: as §1
The TAMRA based mass spectrometry assay was conducted as follows: 0.5 μM peptide substrate and 120 μM βNAD^+ was incubated with 10 nM SIRT1 for 25 minutes at 25° C. in a reaction buffer (50 mM Tris-acetate pH 8, 137 mM NaCl, 2.7 mM KCl, 1 mM MgCl2, 5 mM DTT, 0.05% BSA). The SIRT1 protein was obtained by cloning the SirT1 gene into a T7-promoter containing vector, which was then transformed and expressed in BL21(DE3) bacterial cells. Test compound was added at varying concentrations to this reaction mixture and the resulting reactions were monitored. After the 25 minute incubation with SIRT1, 10 μL of 10% formic acid was added to stop the reaction. The resulting reactions were sealed and frozen for later mass spec analysis. Determination of the amount of deacetylated substrate peptide formed (or, alternatively, the amount of O-acetyl-ADP-ribose (OAADPR) generated) by the sirtuin-mediated NAD-dependent deacetylation reaction allowed for the precise measurement of relative SIRT1 activity in the presence of varying concentrations of the test compound versus control reactions lacking the test compound.
as §2
Sirtuin-modulating compounds of Formula (I) that activated SIRT1 were identified using the assay described above and are shown below in Table 1. The EC1.5 values represent the concentration of test compounds that result in 150% activation of SIRT1. The EC1.5 values for the activating compounds of Formula (I) are represented by A (EC1.5<1 μM), B (EC1.5 1−25 μM), C (EC1.5>25 μM). […]

Row | SMILES | TRP EC1.5 (μM) (SIRT1 [1]) | TRP % Fold Act (SIRT1 [1]) | TAMRA EC1.5 (μM) (SIRT1 [2]) | TAMRA % Fold Act (SIRT1 [2])
1 | O=C(Nc1nccs1)c1ccnn2cc(-c3ccccc3F)nc12 [Compound 1] | C (EC1.5>25 μM) | B (Fold Activation<350%) | C (EC1.5>25 μM) | B (Fold Activation<350%)
2 | O=C(Nc1nccs1)c1ccnn2cc(-c3ccccc3Cl)nc12 [Compound 3] |  |  | C (EC1.5>25 μM) | B (Fold Activation<350%)
3 | Cc1cnc(NC(=O)c2ccnn3cc(-c4ccccc4F)nc23)s1 [Compound 4] | C (EC1.5>25 μM) | B (Fold Activation<350%) | C (EC1.5>25 μM) | B (Fold Activation<350%)
4 | Cc1cnc(NC(=O)c2ccnn3cc(-c4cccc(F)c4)nc23)s1 [Compound 5] | C (EC1.5>25 μM) | B (Fold Activation<350%) | C (EC1.5>25 μM) | B (Fold Activation<350%)
5 | O=C(Nc1ccnc(N2CCOCC2)c1)c1ccnn2cc(-c3ccccc3F)nc12 [Compound 7] |  |  | C (EC1.5>25 μM) | B (Fold Activation<350%)
6 | O=C(Nc1ccnc(N2CCOCC2)c1)c1ccnn2cc(-c3ccccc3Cl)nc12 [Compound 9] |  |  | B (EC1.5 1−25 μM) | B (Fold Activation<350%)
7 | O=C(Nc1cccc(N2CCOCC2)n1)c1ccnn2cc(-c3cccc(F)c3)nc12 [Compound 11] |  |  | C (EC1.5>25 μM) | B (Fold Activation<350%)
8 | O=C(Nc1nccs1)c1ccnn2cc(-c3ccccc3C(F)(F)F)nc12 [Compound 13] | A (EC1.5<1 μM) | B (Fold Activation<350%) | A (EC1.5<1 μM) | B (Fold Activation<350%)
9 | O=C(Nc1ccnc(N2CCOCC2)c1)c1ccnn2cc(-c3ccccc3C(F)(F)F)nc12 [Compound 15] |  |  | A (EC1.5<1 μM) | A (Fold activation≧350%)
10 | O=C(Nc1ccnc(N2CCOCC2)c1)c1ccnn2cc(-c3cccc(C(F)(F)F)c3)nc12 [Compound 19] |  |  | C (EC1.5>25 μM) | B (Fold Activation<350%)
11 | O=C(Nc1cccc(N2CCOCC2)n1)c1ccnn2cc(-c3cccc(C(F)(F)F)c3)nc12 [Compound 20] |  |  | A (EC1.5<1 μM) | B (Fold Activation<350%)
12 | O=C(Nc1cccc(N2CCOCC2)n1)c1ccnn2cc(-c3cccc(Cl)c3)nc12 [Compound 24] |  |  | C (EC1.5>25 μM) | B (Fold Activation<350%)
13 | Cc1cnc(NC(=O)c2cc(N3CCOCC3)nn3cc(-c4cccc(Cl)c4)nc23)s1 [Compound 31] |  |  | C (EC1.5>25 μM) | B (Fold Activation<350%)
14 | O=C(Nc1nccs1)c1cc(N2CCOCC2)nn2cc(-c3ccccc3Cl)nc12 [Compound 34] | B (EC1.5 1−25 μM) | B (Fold Activation<350%) |  | 
15 | Cc1cnc(NC(=O)c2cc(N3CCOCC3)nn3cc(-c4ccccc4Cl)nc23)s1 [Compound 35] | C (EC1.5>25 μM) | B (Fold Activation<350%) |  | 
16 | Cc1cnc(NC(=O)c2cc(N3CCOCC3)nn3cc(-c4ccccc4F)nc23)s1 [Compound 38] | C (EC1.5>25 μM) | B (Fold Activation<350%) |  | 
17 | O=C(Nc1cccnc1)c1cc(N2CCOCC2)nn2cc(-c3cccc(C(F)(F)F)c3)nc12 [Compound 50] |  |  | C (EC1.5>25 μM) | B (Fold Activation<350%)
18 | O=C(Nc1ccncc1)c1cc(N2CCOCC2)nn2cc(-c3cccc(C(F)(F)F)c3)nc12 [Compound 51] |  |  | C (EC1.5>25 μM) | B (Fold Activation<350%)
19 | O=C(Nc1cccnc1)c1cc(N2CCOCC2)nn2cc(-c3ccccc3Cl)nc12 [Compound 52] |  |  | C (EC1.5>25 μM) | B (Fold Activation<350%)
20 | O=C(Nc1ccncc1)c1cc(N2CCOCC2)nn2cc(-c3ccccc3Cl)nc12 [Compound 53] |  |  | C (EC1.5>25 μM) | B (Fold Activation<350%)
21 | Cc1nc(C(=O)Nc2ccnc3cc(-c4cccc(C(F)(F)F)c4)nn23)cs1 [Compound 67] | C (EC1.5>25 μM) | B (Fold Activation<350%) |  | 
22 | Cc1nc(C(=O)Nc2ccnc3cc(-c4cccc(C(F)(F)F)c4)nn23)c(C)s1 [Compound 68] | C (EC1.5>25 μM) | B (Fold Activation<350%) |  | 
23 | Cc1cnc(C(=O)Nc2ccnc3cc(-c4cccc(C(F)(F)F)c4)nn23)s1 [Compound 69] | C (EC1.5>25 μM) | B (Fold Activation<350%) |  | 
24 | O=C(Nc1ccnc2cc(-c3cccc(C(F)(F)F)c3)nn12)c1cnccn1 [Compound 72] | C (EC1.5>25 μM) | B (Fold Activation<350%) |  | 
25 | O=C(Nc1ccccn1)c1ccnc2cc(-c3cccc(C(F)(F)F)c3)nn12 [Compound 84] | C (EC1.5>25 μM) | B (Fold Activation<350%) |  | 
